From patent US20180064153A1, “Methods of Protecting Against Brain Injury” (priority 2016, published 2018)
Like-named read-outs stand apart in the source and are kept apart here.

Legend:
[1] = system: brain-derived neurotrophic factor (BDNF); conditions: day 16 post-blast
histidine = conditions: for Brain Histidine Concentration: mean ± SD
[2] = individuals taking β-alanine as a free amino acid; cited from earlier work
tau protein = conditions: day 16 post-blast; for Tau protein expression, CTL compared with BA: p<0.001
[3] = system: rats exposed to a low-pressure blast wave; conditions: 1 h following blast
Method: Neurological assessment using the neurological severity score (NSS) was performed one hour following the blast and daily thereafter. […] The NSS was performed 1-h following the initial blast wave exposure. NSS assesses somatomotor and somatosensory function by evaluating the animals' activities in motor, sensory, reflexes, beam walking, and beam balancing tasks. Specifically, the following were assessed: ability to exit from a circle (3-point scale), gait on a wide surface (3-point scale), gait on a narrow surface (4-point scale), effort to remain on a narrow surface (2-point scale), reflexes (5-point scale), seeking behavior (2-point scale), beam walking (3-point scale), and beam balance (3- point scale). An observer, who was blind to the different treatment groups, tested the animals.

carnosine = conditions: for Brain Carnosine Concentration: mean ± SD
[4] = system: rats exposed to a low-pressure blast wave; conditions: 30 days supplementation
[5] = system: glial fibrillary acidic protein (GFAP); conditions: day 16 post-blast
neuropeptide Y (NPY) = conditions: day 16 post-blast

NCCC(=O)O [BA, beta-alanine]
BDNF expression, BA compared with PL ([1]; CA1 subregion, p=0.009): significantly higher | BDNF expression, CTL compared with BA ([1]; CA1 subregion, p=0.025): significantly higher | BDNF expression, CTL compared with BA ([1]; CA3 subregion, p=0.005): significantly greater | BDNF expression, BA compared with PL ([1]; CA3 subregion, p=0.110): No difference | BDNF expression, CTL compared with BA ([1]; DG subregion, p=0.005): significantly greater | BDNF expression, BA compared with PL ([1]; DG subregion, p=0.136): no differences | Brain Histidine Concentration (histidine; Amygdala): 2619 ± 1467 mM | Brain Histidine Concentration (histidine; Cortex): 5669 ± 4471 mM | Brain Histidine Concentration (histidine; Hippocampus): 5632 ± 4995 mM | Brain Histidine Concentration (histidine; Hypothalamus): 1862 ± 1794 mM | Brain Histidine Concentration (histidine; Thalamus): 26025 ± 21754 mM | histidine content higher than PL (histidine; across the five regions of the brain): 86% | histidine content, BA compared to PL (histidine; cerebral cortex, p=0.070): Trends towards a higher histidine content | histidine content, BA compared to PL (histidine; hippocampus, p=0.053): Trends towards a higher histidine content | histidine content, BA compared to PL (histidine; thalamus, p=0.108): Trends towards a higher histidine content | duration of flushing/tingling (paraesthesia) of the skin [2]: less than 60 minutes | Tau protein expression, CTL compared with BA (tau protein; CA1 subregion): significantly lower | Tau protein expression, BA compared with PL (tau protein; CA1 subregion, p=0.700): No significant differences | Tau protein expression, CTL compared with BA (tau protein; CA3 subregion): significantly lower | Tau protein expression, BA compared with PL (tau protein; CA3 subregion, p=1.000): no differences | Tau protein expression, CTL compared with BA (tau protein; DG subregion): significantly lower | Tau protein expression, BA compared with PL (tau protein; DG subregion, p=0.557): no differences observed | NSS: reflex responses, motor coordination, motor strength, sensory function, BA vs PL [3]: No significant differences | Brain Carnosine Concentration (carnosine; Amygdala): 23.2 ± 18.4 mM | Brain Carnosine Concentration (carnosine; Cortex): 364 ± 178 mM | Brain Carnosine Concentration (carnosine; Hippocampus): 22.4 ± 11.3 mM | Brain Carnosine Concentration (carnosine; Hypothalamus): 22.7 ± 26.2 mM | Brain Carnosine Concentration (carnosine; Thalamus): 50.9 ± 33.9 mM | carnosine content, BA compared to PL (carnosine; amygdala, p=0.061): Trends towards a difference | carnosine content higher than in animals that consumed the vehicle (carnosine; average across the five brain regions): 79% | carnosine content, BA compared to PL (carnosine; cerebral cortex, p=0.048): significantly higher | carnosine content, BA compared to PL (carnosine; hippocampus, p=0.058): Trends towards a difference | prevalence of animals demonstrating the comorbid pattern of mTBI+PTSD ([4]; 2/49): 4% | prevalence of PTSD ([4]; 5/49): 10.2% | prevalence of animals demonstrating mTBI ([4]; 13/49): 26.5% | GFAP expression, PL compared with BA ([5]; CA1 subregion, p=0.001): significantly greater | GFAP expression, CTL compared with BA ([5]; CA1 subregion, p=0.126): No differences | GFAP expression, PL compared with BA ([5]; CA3 subregion, p=0.021): significantly greater | GFAP expression, BA compared with CTL ([5]; CA3 subregion, p=0.876): no differences | GFAP expression, comparison between BA, PL and CTL ([5]; DG subregion, ANOVA p=0.387): no difference | NPY expression, CTL compared with BA (neuropeptide Y (NPY); CA1 subregion, p=0.011): significantly higher | NPY expression, BA compared with PL (neuropeptide Y (NPY); CA1 subregion, p=0.196): No significant differences | NPY expression, CTL compared with BA (neuropeptide Y (NPY); CA3 subregion, p=0.032): significantly greater | NPY expression, BA compared with PL (neuropeptide Y (NPY); CA3 subregion, p=0.480): no differences | NPY expression, CTL compared with BA (neuropeptide Y (NPY); DG subregion, p=0.011): significantly greater | NPY expression, BA compared with PL (neuropeptide Y (NPY); DG subregion, p=0.074): trended (p=0.074) towards a higher response
